Experimental data as given in patent publication US9765035B2 (priority 2013, dated 2017).
Where two headings read alike, the source gives them in different places.

Target: T1, human PRMT1 (Homo sapiens, UniProt Q99873)
T1 construct: GST-tagged PRMT1; made in house; host or cells: High Five insect cells (baculovirus)
Assay: biochemical
Source text: General Materials. S-adenosylmethionine (SAM), S-adenosylhomocysteine (SAH), bicine, Tween20, dimethylsulfoxide (DMSO), bovine skin gelatin (BSG), and Tris(2-carboxyethyl)phosphine hydrochloride solution (TCEP) were purchased from Sigma-Aldrich at the highest level of purity possible. ^3H-SAM was purchase from American Radiolabeled Chemicals with a specific activity of 80 Ci/mmol. 384-well streptavidin Flashplates were purchased from PerkinElmer.
Substrates. Peptide representative of human histone H4 residues 36-50 was synthesized with an N-terminal linker-affinity tag motif and a C-terminal amide cap by 21st Century Biochemicals. The peptide was purified by high-performance liquid chromatography (HPLC) to greater than 95% purity and confirmed by liquid chromatography mass spectrometry (LC-MS). The sequence was Biot-Ahx-[…]-amide (SEQ ID NO.:1).
Molecular Biology: Full-length human PRMT1 isoform 1 (NM_001536.5) transcript clone was amplified from an HEK 293 cDNA library, incorporating flanking 5′ sequence encoding a FLAG tag ([…]) (SEQ ID NO.:2) fused directly to Met 1 of PRMT1. The amplified gene was subcloned into pFastBacI (Life Technologies) modified to encode an N-terminal GST tag and a TEV cleavage sequence
Protein Expression. Recombinant baculovirus were generated according to Bac-to-Bac kit instructions (Life Technologies). Protein over-expression was accomplished by infecting exponentially growing High Five insect cell culture at 1.5×10^6 cell/ml with 1:100 ratio of virus. Infections were carried out at 27° C. for 48 hours, harvested by centrifugation, and stored at −80° C. for purification.
Protein Purification. […] GST-tagged PRMT1 was eluted with 50 mM Tris, 2 mM glutathione, pH 7.8, dialysed in buffer A and concentrated to 1 mg/mL. The purity of recovered protein was 73%. Reference: Wasilko, D. J. and S. E. Lee: “TIPS: titerless infected-cells preservation and scale-up” Bioprocess J., 5 (2006), pp. 29-32.
General Procedure for PRMT1 Enzyme Assays on Peptide Substrates. The assays were all performed in a buffer consisting of 20 mM Bicine (pH=7.6), 1 mM TCEP, 0.005% BSG, and 0.002% Tween 20, prepared on the day of use. Compounds in 100% DMSO (1 ul) were spotted into a polypropylene 384-well V-bottom plates (Greiner) using a Platemate Plus outfitted with a 384-channel head (Thermo Scientific). DMSO (1 ul) was added to Columns 11, 12, 23, 24, rows A-H for the maximum signal control and 1 ul of SAH, a known product and inhibitor of PRMT1, was added to columns 11, 12, 23, 24, rows I-P for the minimum signal control. A cocktail (40 ul) containing the PRMT1 enzyme was added by Multidrop Combi (Thermo-Fisher). The compounds were allowed to incubate with PRMT1 for 30 min at room temperature, then a cocktail (10 ul) containing SAM and peptide was added to initiate the reaction (final volume=51 ul). The final concentrations of the components were as follows: PRMT1 was 0.5 nM, ^3H-SAM was 200 nM, non-radiolabeled SAM was 1.5 uM, peptide was 20 nM, SAH in the minimum signal control wells was 1 mM, and the DMSO concentration was 2%. The assays were stopped by the addition of non-radiolabeled SAM (10 ul) to a final concentration of 300 uM, which dilutes the ^3H-SAM to a level where its incorporation into the peptide substrate is no longer detectable. 50 ul of the reaction in the 384-well polypropylene plate was then transferred to a 384-well Flashplate and the biotinylated peptides were allowed to bind to the streptavidin surface for at least 1 hour before being washed once with 0.1% Tween20 in a Biotek EL×405 plate washer. The plates were then read in a PerkinElmer TopCount plate reader to measure the quantity of ^3H-labeled peptide bound to the Flashplate surface, measured as disintegrations per minute (dpm) or alternatively, referred to as counts per minute (cpm).
Where dpm=disintegrations per minute, cmpd=signal in assay well, and min and max are the respective minimum and maximum signal controls. […]

[1] = biochemical evaluation, peptide substrate, read-out: PRMT1 IC50
[2] = single experiment or average of multiple experiments, read-out: PRMT1 biochemical evaluation (numerical)

T1 sequence (Q99873 other isoform, or with tags, fused parts or gaps): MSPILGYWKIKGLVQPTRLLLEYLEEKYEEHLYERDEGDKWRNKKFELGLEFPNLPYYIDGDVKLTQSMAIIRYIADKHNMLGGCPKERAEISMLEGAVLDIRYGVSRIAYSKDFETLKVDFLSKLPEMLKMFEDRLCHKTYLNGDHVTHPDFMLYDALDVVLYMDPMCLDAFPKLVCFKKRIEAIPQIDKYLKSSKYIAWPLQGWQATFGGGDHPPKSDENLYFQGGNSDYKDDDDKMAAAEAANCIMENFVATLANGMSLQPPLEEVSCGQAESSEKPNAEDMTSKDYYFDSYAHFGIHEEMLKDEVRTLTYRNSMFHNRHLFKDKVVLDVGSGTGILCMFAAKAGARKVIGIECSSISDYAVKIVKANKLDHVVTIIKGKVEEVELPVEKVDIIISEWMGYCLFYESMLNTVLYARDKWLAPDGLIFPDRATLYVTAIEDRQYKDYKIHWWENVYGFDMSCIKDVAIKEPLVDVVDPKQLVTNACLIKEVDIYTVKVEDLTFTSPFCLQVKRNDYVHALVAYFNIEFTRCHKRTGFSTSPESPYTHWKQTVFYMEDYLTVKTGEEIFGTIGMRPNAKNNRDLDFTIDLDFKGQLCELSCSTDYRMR

CNCCN(C)Cc1n[nH]c2ccc(Oc3ccccc3OC(C)C)cc12 [Compound 56]
IC50 [1]: < 100 nM
IC50 [2]: 994 nM

CNCCN(C)Cc1n[nH]c2ccc(Oc3ccc(C(F)(F)F)cc3)cc12 [Compound 39]
IC50 [1]: < 100 nM
IC50 [2]: 2270 nM

CNCCN(C)Cc1n[nH]c2ccc(N3CCCCC3)cc12 [Compound 46, N^1,N^2-dimethyl-N^1-((5-(piperidin-1-yl)-1H-indazol-3-yl)methyl)ethane-1,2-diamine]
IC50 [1]: < 100 nM
IC50 [2]: 21.2 nM

CNCCN(C)Cc1n[nH]c2ccc(OCc3ccc(C(C)(C)C)cc3)cc12 [Compound 71]
IC50 [1]: 101 to 1000 nM
IC50 [2]: 203 nM

CNCCN(C)Cc1n[nH]c2ccc(OC)cc12 [Compound 35]
IC50 [1]: 3010 to 10000 nM
IC50 [2]: 187 nM

CNCCN(C)Cc1n[nH]c2ccc(Oc3cccc(OC)c3)cc12 [Compound 22]
IC50 [1]: < 100 nM
IC50 [2]: 11.9 nM

CCCOc1ccc2[nH]nc(CN(C)CCNC)c2c1 [Compound 65]
IC50 [1]: ≤ 100 nM
IC50 [2]: 128 nM

CNCCN(C)Cc1n[nH]c2ccc(OCc3ccc(C(F)(F)F)cc3)cc12 [Compound 68]
IC50 [1]: 101 to 1000 nM
IC50 [2]: 91.5 nM

CNCCN(C)Cc1n[nH]c2ccc(OCC(C)c3ccccc3)cc12 (stereo not shown) [Compound 19]
IC50 [1]: < 100 nM
IC50 [2]: 15.9 nM

CNCCN(C)Cc1n[nH]c2ccc(C3CCCCC3)cc12 [Compound 47, N^1-((5-cyclohexyl-1H-indazol-3-yl)methyl)-N^1,N^2-dimethylethane-1,2-diamine]
IC50 [1]: ≤ 100 nM
IC50 [2]: 55.5 nM

CNCCN(C)Cc1n[nH]c2ccc(OCc3cccc(C(C)(C)C)c3)cc12 [Compound 74]
IC50 [1]: 101 to 1000 nM
IC50 [2]: 23 nM

CNCCN(C)Cc1n[nH]c2ccc(C3=CCCCC3)cc12 [Compound 48]
IC50 [1]: ≤ 100 nM
IC50 [2]: 34 nM

CNCCN(C)Cc1n[nH]c2ccc(OCCOC)cc12 [Compound 5, N^1-((5-(2-methoxyethoxy)-1H-indazol-3-yl)methyl)-N^1,N^2-dimethylethane-1,2-diamine]
IC50 [1]: < 100 nM
IC50 [2]: 38.5 nM

CNCCN(C)Cc1n[nH]c2ccc(OCc3cc[nH]n3)cc12 [Compound 17]
IC50 [1]: < 100 nM
IC50 [2]: 51.7 nM

CNCCN(C)Cc1n[nH]c2ccc(C(C)C)cc12 [Compound 42, N^1-((5-isopropyl-1H-indazol-3-yl)methyl)-N^1,N^2-dimethylethane-1,2-diamine]
IC50 [1]: ≤ 100 nM
IC50 [2]: 774 nM

CNCCN(C)Cc1n[nH]c2ccc(OC(C)Cc3ccccc3)cc12 (stereo not shown) [Compound 9]
IC50 [1]: < 100 nM
IC50 [2]: 10.8 nM

CNCCN(C)Cc1n[nH]c2ccc(OCc3cccc(C#N)c3)cc12 [Compound 14]
IC50 [1]: < 100 nM
IC50 [2]: 23.3 nM

CNCCN(C)Cc1n[nH]c2ccc(OCc3ccccn3)cc12 [Compound 12]
IC50 [1]: < 100 nM
IC50 [2]: 27.2 nM

CNCCN(C)Cc1n[nH]c2ccc(Oc3ccccc3Cl)cc12 [Compound 30]
IC50 [1]: < 100 nM
IC50 [2]: 64.5 nM

CNCCN(C)Cc1n[nH]c2ccc(OCC3CCCCC3)cc12 [Compound 54]
IC50 [1]: 101 to 1000 nM
IC50 [2]: 2000 nM

CNCCN(C)Cc1n[nH]c2ccc(OC3CCCCC3)cc12 [Compound 18]
IC50 [1]: < 100 nM
IC50 [2]: 40.2 nM

CNCCN(C)Cc1nn(C)c2ccc(OCc3ccc(C#N)cc3)cc12 [Compound 32]
IC50 [1]: 101 to 1000 nM
IC50 [2]: 73.9 nM

CNCCN(C)Cc1n[nH]c2ccc(Oc3ccc(C)cc3)cc12 [Compound 55]
IC50 [1]: < 100 nM
IC50 [2]: 6550 nM

CNCCN(C)Cc1n[nH]c2ccc(OC3CCCC3)cc12 [Compound 11]
IC50 [1]: < 100 nM
IC50 [2]: 3.3 nM

CNCCN(C)Cc1n[nH]c2ccc(OCc3ccn(CC(C)C)n3)cc12 [Compound 33]
IC50 [1]: 101 to 1000 nM
IC50 [2]: 44.5 nM

CNCCN(C)Cc1n[nH]c2ccc(Oc3cccc(C)c3)cc12 [Compound 26]
IC50 [1]: < 100 nM
IC50 [2]: 44 nM

CNCCN(C)Cc1n[nH]c2ccc(OCC3CCOCC3)cc12 [Compound 50]
IC50 [1]: 3010 to 10000 nM
IC50 [2]: 11 nM

CNCCN(C)Cc1n[nH]c2ccc(Oc3cccc(OC(C)C)c3)cc12 [Compound 67]
IC50 [1]: < 100 nM
IC50 [2]: 24.8 nM

CNCCN(C)Cc1nn(C(C)C)c2ccc(OCc3ccc(C#N)cc3)cc12 [Compound 62]
IC50 [1]: 1010 to 3000 nM
IC50 [2]: 56.5 nM

CN(CCN)Cc1n[nH]c2ccc(OCc3ccccc3)cc12 [Compound 1B]
IC50 [1]: < 100 nM
IC50 [2]: 3.59 nM

CNCCN(C)Cc1n[nH]c2ccc(OCc3ccc(C(C)=O)cc3)cc12 [Compound 23]
IC50 [1]: < 100 nM
IC50 [2]: 12 nM

CNCCN(C)Cc1n[nH]c2ccc(Oc3ccc(OC)cc3)cc12 [Compound 59]
IC50 [1]: < 100 nM
IC50 [2]: 101 nM

CCOc1ccc2[nH]nc(CN(C)CCNC)c2c1 [Compound 63]
IC50 [1]: 101 to 1000 nM
IC50 [2]: 98.6 nM

CNCCN(C)Cc1n[nH]c2cccc(OCCC(C)C)c12 [Compound 31]
IC50 [1]: ≤ 100 nM
IC50 [2]: 46.5 nM

CNCCN(C)Cc1n[nH]c2cccc(OCc3ccccc3)c12 [Compound 21]
IC50 [1]: < 100 nM
IC50 [2]: 13.1 nM

CNCCN(C)Cc1n[nH]c2ccc(Oc3ccccc3OC)cc12 [Compound 24]
IC50 [1]: < 100 nM
IC50 [2]: 12.7 nM

CNCCN(C)Cc1n[nH]c2ccc(O)cc12 [Compound 36, 3-((methyl(2-(methylamino)ethyl)amino)methyl)-1H-indazol-5-ol]
IC50 [1]: 101 to 1000 nM
IC50 [2]: 6760 nM

CNCCN(C)Cc1n[nH]c2ccc(Oc3ccc(OC(C)C)cc3)cc12 [Compound 61]
IC50 [1]: < 100 nM
IC50 [2]: 40.8 nM

CNCCN(C)Cc1n[nH]c2ccc(OCCCOC)cc12 [Compound 6]
IC50 [1]: < 100 nM
IC50 [2]: 19 nM

CNCCN(C)Cc1n[nH]c2ccc(C3=CCOCC3)cc12 [Compound 45]
IC50 [1]: < 100 nM
IC50 [2]: 37.4 nM

CNCCN(C)Cc1n[nH]c2ccc(Oc3ccccc3)cc12 [Compound 10, N^1,N^2-dimethyl-N^1-((5-phenoxy-1H-indazol-3-yl)methyl)ethane-1,2-diamine]
IC50 [1]: < 100 nM
IC50 [2]: 16.2 nM

CNCCN(C)Cc1n[nH]c2ccc(Oc3ccc(C#N)cc3)cc12 [Compound 37]
IC50 [1]: 1010 to 3000 nM
IC50 [2]: 6420 nM

CNCCN(C)Cc1n[nH]c2ccc(OCc3ccc(C#N)cc3)cc12 [Compound 13]
IC50 [1]: < 100 nM
IC50 [2]: 86.9 nM

CNCCN(C)Cc1n[nH]c2ccc(C3CCOCC3)cc12 [Compound 44, N^1,N^2-dimethyl-N^1-((5-(tetrahydro-2H-pyran-4-yl)-1H-indazol-3-yl)methyl)ethane-1,2-diamine]
IC50 [1]: < 100 nM
IC50 [2]: 43.6 nM

CNCCN(C)Cc1n[nH]c2ccc(OCc3ccc(C(N)=O)cc3)cc12 [Compound 69]
IC50 [1]: 101 to 1000 nM
IC50 [2]: 30.3 nM

CNCCN(C)Cc1n[nH]c2ccc(OCc3cccc(NC(C)=O)c3)cc12 [Compound 70]
IC50 [1]: 101 to 1000 nM
IC50 [2]: 188 nM

CNCCN(C)Cc1n[nH]c2ccc(Oc3cccc(C#N)c3)cc12 [Compound 28]
IC50 [1]: < 100 nM
IC50 [2]: 22.5 nM

CC(C)COc1ccc2[nH]nc(CN(C)CCN)c2c1 [Compound 2, N1-((5-iso-butoxy-1H-indazol-3-yl)methyl)-N1-methylethane-1,2-diamine]
IC50 [1]: < 100 nM
IC50 [2]: 21 nM

CNCCN(C)Cc1n[nH]c2ccc(OCc3cccc(C(F)(F)F)c3)cc12 [Compound 72]
IC50 [1]: < 100 nM
IC50 [2]: 182 nM

CNCCN(C)Cc1n[nH]c2ccc(OC(C)C)cc12 [Compound 64]
IC50 [1]: ≤ 100 nM
IC50 [2]: 2630 nM
